Patent US20090113563A1, “Probe for detecting nuclear receptor agonist or antagonist and method for screening agonist or antagonist to nuclear receptor with the use of the same” (priority 2004, published 2009)
Blank lines part the entries; values can stand above or below the molecule they belong to. No end group written: not given here.

How the values were obtained:
PPAR γ-LBD = biological target: T1, PPAR γ-LBD (Homo sapiens, UniProt P37231); assay: FRET probe for peroxisome proliferator-activated receptor agonist/antagonist in living CHO-K1 cells; assay type: cell-based; conditions: 10 μM
T1 construct: expressed in transfected cells; host or cells: CHO-K1, pcDNA3.1(+)
T1 sequence (P37231 235-505): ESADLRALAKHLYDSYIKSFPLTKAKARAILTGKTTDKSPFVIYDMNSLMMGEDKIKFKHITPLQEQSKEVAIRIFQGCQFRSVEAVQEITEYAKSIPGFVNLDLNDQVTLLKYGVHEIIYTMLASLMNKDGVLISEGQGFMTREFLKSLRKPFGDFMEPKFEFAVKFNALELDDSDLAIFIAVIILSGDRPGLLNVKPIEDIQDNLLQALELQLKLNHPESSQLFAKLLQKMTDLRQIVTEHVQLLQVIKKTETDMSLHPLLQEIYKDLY
Description: According to nearly the same procedure as in the case of the above (A), a plasmid was constructed.
(§1) Each cell was cultured in Ham's F-12 medium supplemented with 10% fetal calf serum (FCS)b and Dulbecco's modified eagle medium supplemented with 10% FCS, 1.0 mM sodium pyruvate and 0.1 mM nonessential amino acids respectively at 37° C. in a humidified atmosphere 5% CO2. Cells were transfected with an expression vector pcDNA3.1(+) containing a probe in the presence of lipofectAMINE 2000 reagent in glass bottom dishes.
(§2) The cells were Chinese hamster ovary (CHO-K1) cells for a probe for detecting an agonist or an antagonist to an estrogen receptor or a peroxisome growth factor-activating receptor, and pig kidney (PK-15) cells for a probe for detecting an agonist or an antagonist to an androgen receptor.
(§3) Before imageing, the culture medium was replaced with Hanks' balanced salt solution.
(§4) The exposure time at 440±10 nm excitation was 100 ms.

[1] = biological target: T2, human estrogen receptor αLBD (Homo sapiens, UniProt P03372); assay: FRET probe (CFP-SRC-1 LXXLL-linker-ER αLBD-YFP) for estrogen receptor agonist/antagonist in living CHO-K1 cells; assay type: cell-based
T2 construct: expressed in transfected cells; host or cells: CHO-K1 (Chinese hamster ovary), pcDNA3.1(+)
T2 sequence (P03372 with tags, fused parts or gaps L306P/I326L/L327I/T334S/V368G/T371N/T483N/Q502R/S527N): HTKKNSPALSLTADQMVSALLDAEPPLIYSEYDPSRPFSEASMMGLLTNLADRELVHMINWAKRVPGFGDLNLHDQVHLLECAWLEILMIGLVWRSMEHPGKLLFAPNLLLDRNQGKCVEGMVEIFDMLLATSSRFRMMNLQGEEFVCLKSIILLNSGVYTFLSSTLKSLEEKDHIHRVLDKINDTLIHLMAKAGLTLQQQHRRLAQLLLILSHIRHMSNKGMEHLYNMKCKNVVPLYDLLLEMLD
Description: as §1, §2, §3, §4
The ED50 values were converted to relative recruitment ability (RRA; Non-Patent Document 34) to compare the relative abilities of the tested compounds to promote the recruitment of the binding-responsive site to the ligand-recognition site. The RRA were calculated using the following equation.

[2] = biological target: T3, human androgen receptor LBD (Homo sapiens, UniProt P10275); assay: FRET probe for androgen receptor agonist/antagonist in living PK-15 cells; assay type: cell-based
T3 construct: expressed in transfected cells; host or cells: PK-15 (pig kidney), pcDNA3.1(+)
T3 sequence (P10275 674-912): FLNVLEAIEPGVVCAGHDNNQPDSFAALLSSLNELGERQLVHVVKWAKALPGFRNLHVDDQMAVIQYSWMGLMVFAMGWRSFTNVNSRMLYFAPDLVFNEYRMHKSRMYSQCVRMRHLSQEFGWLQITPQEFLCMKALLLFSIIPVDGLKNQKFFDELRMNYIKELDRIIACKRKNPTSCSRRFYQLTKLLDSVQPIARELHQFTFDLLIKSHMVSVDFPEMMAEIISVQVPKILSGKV
Description: According to nearly the same procedure as in the cases of the above (A) and (B), a plasmid was constructed.
as §1, §2, §3, §4

[3] = biological target: T4, human estrogen receptor α ligand-binding domain (305-550aa) (human, UniProt P03372 305-550); assay: intramolecular CFP/YFP FRET in living cells, 100 nM E2
T4 construct: also called ER α-LBD; ER αLBD
T4 sequence (looked up): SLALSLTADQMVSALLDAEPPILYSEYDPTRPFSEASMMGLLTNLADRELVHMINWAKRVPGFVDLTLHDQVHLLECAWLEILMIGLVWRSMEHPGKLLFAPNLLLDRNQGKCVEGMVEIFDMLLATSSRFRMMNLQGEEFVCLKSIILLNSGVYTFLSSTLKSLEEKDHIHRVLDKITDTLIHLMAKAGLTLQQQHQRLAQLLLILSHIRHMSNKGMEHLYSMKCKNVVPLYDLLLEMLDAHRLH

[4] = biological target: T5, human androgen receptor ligand-binding domain (672-910aa) (human, UniProt O97775 665-903 (Pan troglodytes entry)); assay: intramolecular CFP/YFP FRET in living cells, 100 nM DHT
T5 construct: also called AR-LBD; ligand-recognition site
T5 sequence: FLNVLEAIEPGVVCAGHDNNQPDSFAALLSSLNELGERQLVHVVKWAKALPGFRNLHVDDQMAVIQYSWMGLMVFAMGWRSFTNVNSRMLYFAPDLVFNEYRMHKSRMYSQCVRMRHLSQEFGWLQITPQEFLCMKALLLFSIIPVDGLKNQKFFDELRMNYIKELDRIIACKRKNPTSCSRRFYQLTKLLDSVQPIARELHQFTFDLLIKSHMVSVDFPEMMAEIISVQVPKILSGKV

[5] = biological target: T4, human estrogen receptor α …; assay: cell-based or functional assay
[6] = biological target: T6, peroxisome growth factor-activating receptor γ ligand-binding domain (235-505aa) (Homo sapiens (Human), UniProt P37231 235-505); assay: intramolecular CFP/YFP FRET of the probe in CHO-K1 cells, 10 µM 15d-PGJ2
T6 construct: also called PPAR γ-LBD
T6 sequence: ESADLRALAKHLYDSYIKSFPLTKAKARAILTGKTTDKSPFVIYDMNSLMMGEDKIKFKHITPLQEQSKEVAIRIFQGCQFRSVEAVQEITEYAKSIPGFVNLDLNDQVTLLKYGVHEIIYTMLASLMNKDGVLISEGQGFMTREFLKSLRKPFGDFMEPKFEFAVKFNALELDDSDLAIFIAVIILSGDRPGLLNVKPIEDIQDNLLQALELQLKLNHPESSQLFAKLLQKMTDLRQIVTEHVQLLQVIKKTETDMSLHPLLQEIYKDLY
Description: CHO-K1 cells expressing the probe (FIG. 2B) were stimulated by 10 μM 15d-PGJ₂ and the event was observed by following time course fo the changes in FRET.

Molecule: CC(C)(c1ccc(OCC2CO2)cc1)c1ccc(OCC2CO2)cc1 (stereo not drawn) [BADGE, bisphenol A diglycidyl ether]
change in emission ratio (FRET response) (PPAR γ-LBD; FIG. 7): no significant change in the emission ratio

Molecule: nonylphenol [NP]
relative recruitment ability (RRA) ([1]; RRA=(conc. E2 [50% response]/conc. EDC [50% response])×100, E2 set at 100): 3.0 | EC50 ([1]; read-out: EC50 (concentration inducing 50% response of LXXLL motif recruitment to ER αLBD), CHO-K1 cells expressing the probe, from response curves of FIG. 5A, tested 1.0×10^−4 to 1.0×10^−11 M): 260 nM

Molecule: CC12CC1(C)C(=O)N(c1cc(Cl)cc(Cl)c1)C2=O (stereo not drawn) [procymidone]
change in FRET response, antagonist alone ([2]; 100 nM alone, PK-15, FIG. 8): no significant increase in the FRET | FRET response with DHT plus antagonist ([2]; DHT 1.0, 10, 100 nM + 10 μM antagonist, PK-15, FIG. 8): the FRET level increased in a dose dependent manner of DHT

Molecule: 4-hydroxytamoxifen [OHT]
change in FRET response [1]: no increase in the FRET

Molecule: C[C@]12CCC(=O)C=C1CC[C@@H]1[C@@H]2[C@@H](O)C[C@@]2(C)[C@H]1CC[C@]2(O)C(=O)CO [cortisol]
FRET response over tested concentration range ([2]; PK-15 cells, 1.0×10^−4 to 1.0×10^−11 M, FIG. 5B): did not show the response at any tested concentration

Molecule: CCCCC/C=C/C=C1/C(=O)C=C[C@@H]1C/C=C\CCCC(=O)O [15d-PGJ2, 15-deoxy-Δ^12,14-prostaglandin J2]
change in CFP/YFP emission ratio (480/535 nm) (PPAR γ-LBD; FIG. 4B-a): decrease in CFP/YFP emission ratio (480/535 nm) (increase in FRET) | time for emission ratio decrease to reach plateau (PPAR γ-LBD; FIG. 4B-a): ≤ 1000 s

binding result [3]: no binding | binding result [4]: no binding
Molecule: HKIAHRAAQEG (also called mutant LXXLL motif)

EC50 of the small-molecule ligand DES for the FRET response of the probe (CHO-K1 cells) [5]: 13 nM | EC50 of the small-molecule ligand E2 for the FRET response of the probe (CHO-K1 cells) [5]: 8 nM | EC50 of the small-molecule ligand NP for the FRET response of the probe (CHO-K1 cells) [5]: 260 nM | binding result [6]: binds
B1: steroid receptor coactivator 1 NR box II (687-697aa) coactivator peptide (peptide)
peptide: HKILHRLLQEG
modifications: also: segment of CFP–NR box–GGNGG-type linker–LBD–YFP fusion probe
notes: Not tested as a free peptide; also called SRC-1 NR box II
